According to US20040209929A1, “Fused heteroaryl carboxylic acids as PPAR agonists” (Agouron Pharmaceuticals, Inc., priority 2003, published 2004):

Molecular target: T1, PPAR-γ (Homo sapiens, UniProt P37231)
T1 sequence (P37231 1-505): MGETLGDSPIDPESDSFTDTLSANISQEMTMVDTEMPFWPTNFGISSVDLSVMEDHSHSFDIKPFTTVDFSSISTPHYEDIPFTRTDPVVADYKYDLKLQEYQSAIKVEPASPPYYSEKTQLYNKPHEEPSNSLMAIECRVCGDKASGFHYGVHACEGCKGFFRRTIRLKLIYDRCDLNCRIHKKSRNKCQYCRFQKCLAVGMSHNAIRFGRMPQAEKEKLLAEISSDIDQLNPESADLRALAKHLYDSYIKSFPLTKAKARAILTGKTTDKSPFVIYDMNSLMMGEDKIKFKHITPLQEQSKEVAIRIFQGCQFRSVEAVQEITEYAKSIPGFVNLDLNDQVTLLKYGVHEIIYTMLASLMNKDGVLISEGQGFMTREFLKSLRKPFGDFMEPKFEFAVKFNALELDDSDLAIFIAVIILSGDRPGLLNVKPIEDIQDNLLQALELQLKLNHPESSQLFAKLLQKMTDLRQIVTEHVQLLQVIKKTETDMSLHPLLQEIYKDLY
Test: Scintillation Proximity Assay (SPA), displacement of 3H labeled darglitazone from PPAR-γ
Assay type: binding
Conditions: PPAR protein on polylysine beads, read-out: PPAR-γKi
Excerpt: Scintillatian Proximity Assay (SPA) Assays
In the SPA assay, 3H labeled darglitazone (for PPAR-γ) or GW^2331 (for PPAR-α) in bound to the PPAR protein captured on SPA polylysine beads and generates radioactive count signal that can be detected by TopCounts (Packard). The PPAR-bound 3H labeled ligand can be displaced by an unlabeled compound. The Ki of the compound can be then determined by the extent of displacement at various compound concentrations.
SPA polylysine beads, which can be purchased from Amersham Bioscience.
3H labeled Darglitazone for PPAR-γ.
Buffer—PBS, 10% glycerol, 14 mM beta-mercaptoethanol.

SMILES	Ki [µM]
Cc1oc(-c2ccccc2)nc1CCOc1cccc2c1cnn2CCC(=O)O [Example 1, 3-{4-[2-(5-methyl-2-phenyl-1,3-oxazol-4-yl)ethoxy]-1H-indazol-1-yl}propanoic acid]	0.58
Cc1oc(-c2ccccc2)nc1COc1ccc2cnn(CCCC(=O)O)c2c1 [Example 3, 4-{6-[(5-methyl-2-phenyl-1,3-oxazol-4-yl)methoxy]-1H-indazol-1-yl}butanoic acid]	> 100
Cc1oc(-c2ccccc2)nc1COc1ccc2cnn(CC(=O)O)c2c1 [Example 4, {6-[(5-methyl-2-phenyl-1,3-oxazol-4-yl)methoxy]-1H-indazol-1-yl}acetic acid]	> 50
O=C(O)CCn1ncc2ccc(OCc3nc(-c4ccccc4)oc3-c3ccccc3)cc21 [Example 6, 3-{6-[(2,5-diphenyl-1,3-oxazol-4-yl)methoxy]-1H-indazol-1-yl}propanoic acid]	1.8
O=C(O)Cn1ncc2ccc(OCc3nc(-c4ccccc4)oc3-c3ccccc3)cc21 [Example 7, {6-[(2,5-diphenyl-1,3-oxazol-4-yl)methoxy]-1H-indazol-1-yl}acetic acid]	6.9
O=C(O)CCCn1ncc2ccc(OCc3nc(-c4ccccc4)oc3-c3ccccc3)cc21 [Example 10, 4-{6-[(2,5-diphenyl-1,3-oxazol-4-yl)methoxy]-1H-indazol-1-yl}butanoic acid]	> 100
O=C(O)CCCn1ncc2c(OCc3nc(-c4ccccc4)oc3-c3ccccc3)cccc21 [Example 11, 4-{4-[(2,5-diphenyl-1,3-oxazol-4-yl)methoxy]-1H-indazol-1-yl}butanoic acid]	> 100
O=C(O)Cn1ncc2c(OCc3nc(-c4ccccc4)oc3-c3ccccc3)cccc21 [Example 12, {4-[(2,5-diphenyl-1,3-oxazol-4-yl)methoxy]-1H-indazol-1-yl)acetic acid]	4
Cc1oc(-c2ccccc2)nc1COc1ccc2cnn(CCC(=O)O)c2c1 [Example 13, 3-{6-[(5-methyl-2-phenyl-1,3-oxazol-4-yl)methoxy]-1H-indazol-1-yl}propanoic acid]	41
O=C(O)CCn1ncc2c(OCc3nc(-c4ccccc4)oc3-c3ccccc3)cccc21 [Example 14, 3-{4-[(2,5-diphenyl-1,3-oxazol-4-yl)methoxy]-1H-indazol-1-yl}propanoic acid]	3.7
Cc1oc(-c2ccccc2)nc1COc1cccc2c1cnn2CCCC(=O)O [Example 15, 4-{4-[(5-methyl-2-phenyl-1,3-oxazol-4-yl)methoxy]-1H-indazol-1-yl}butanoic acid]	10
Cc1oc(-c2ccccc2)nc1COc1cccc2c1cnn2CC(=O)O [Example 16, {4-[(5-methyl-2-phenyl-1,3-oxazol-4-yl)methoxy]-1H-indazol-1-yl}acetic acid]	> 100
Cc1oc(-c2ccccc2)nc1COc1cccc2c1cnn2CCC(=O)O [Example 17, 3-{4-[(5-methyl-2-phenyl-1,3-oxazol-4-yl)methoxy]-1H-indazol-1-yl}propanoic acid]	4
Cc1oc(-c2ccccc2)nc1CCOc1cccc2c1cnn2CCCC(=O)O [Example 18]	> 50
Cc1oc(-c2ccccc2)nc1CCOc1ccc2cnn(CC(=O)O)c2c1 [Example 20, {6-[2-(5-methyl-2-phenyl-1,3-oxazol-4-yl)ethoxy]-1H-indazol-1-yl}acetic acid]	> 50
Cc1oc(-c2ccccc2)nc1CCOc1ccc2cnn(CCC(=O)O)c2c1 [Example 21, 3-{6-[2-(5-methyl-2-phenyl-1,3-oxazol-4-yl)ethoxy]-1H-indazol-1-yl}propanoic acid]	> 50
Cc1oc(-c2ccccc2)nc1CCOc1ccc2cnn(CCCC(=O)O)c2c1 [Example 22, 4-{6-[2-(5-methyl-2-phenyl-1,3-oxazol-4-yl)ethoxy]-1H-indazol-1-yl}butanoic acid]	> 50

SMILES	Ki [µM]
Cc1oc(-c2ccccc2)nc1CCCOc1cccc2c1cnn2CCCC(=O)O [Example 23, 4-{4-[3-(5-methyl-2-phenyl-1,3-oxazol-4-yl)propoxy]-1H-indazol-1-yl}butanoic acid]	> 50
Cc1oc(-c2ccccc2)nc1CCCOc1cccc2c1cnn2CC(=O)O [Example 25, {4-[3-(5-methyl-2-phenyl-1,3-oxazol-4-yl)propoxy]-1H-indazol-1-yl}acetic acid]	> 50
Cc1oc(-c2ccccc2)nc1CCCOc1cccc2c1cnn2CCC(=O)O [Example 27, 3-{4-[3-(5-methyl-2-phenyl-1,3-oxazol-4-yl)propoxy]-1H-indazol-1-yl}propanoic acid]	> 50
Cc1oc(-c2ccccc2)nc1CCOc1ccnc2c1ccn2CC(=O)O [Example 29, {4-[2-(5-methyl-2-phenyl-1,3-oxazol-4-yl)ethoxy]-1H-pyrrolo[2,3-b]pyridin-1-yl}acetic acid]	> 50
Cc1oc(-c2ccccc2)nc1CCCn1ncc2c(OC(C)(C)C(=O)O)cccc21 [Example 33, 2-methyl-2-({1-[3-(5-methyl-2-phenyl-1,3-oxazol-4-yl)propyl]-1H-indazol-4-yl}oxy)propanoic acid]	7
Cc1oc(-c2ccccc2)nc1CCOc1cccc2c1ncn2CCC(=O)O [Example 34, 3-{4-[2-(5-methyl-2-phenyl-1,3-oxazol-4-yl)ethoxy]-1H-benzimidazol-1-yl}propanoic acid]	> 50
Cc1oc(-c2ccccc2)nc1CCOc1cccc2c1c(C(=O)C(F)(F)F)cn2CCC(=O)O [Example 44]	19
Cc1oc(-c2ccccc2)nc1CCOc1ccnc2c1ccn2CCC(=O)O [Example 45]	9
Cc1oc(-c2ccccc2)nc1CCNc1ccnc2c1ccn2CCC(=O)O [Example 46]	0.58
Cc1oc(-c2ccccc2)nc1CCn1ccc2c(OCC(=O)O)ccnc21 [Example 47]	> 50
Cc1oc(-c2ccccc2)nc1CCOc1cccc2c1ccn2CC(=O)O [Example 48]	30
Cc1oc(-c2ccccc2)nc1CCOc1cccc2c1cnn2CC(=O)O [Example 49]	> 50
Cc1oc(-c2ccccc2)nc1CCOc1cccc2c1c(Cl)cn2CCC(=O)O [Example 50]	4.9
Cc1oc(-c2ccccc2)nc1CCOc1cccc2c1ccn2CC(CCC(=O)O)C(=O)O (stereo not shown) [Example 51]	> 100
Cc1oc(-c2ccccc2)nc1CCOc1ccnc2c(CCC(=O)O)cccc12 [Example 53]	8.5
Cc1oc(-c2ccccc2)nc1CCOc1cccc2c1ccn2CCCC(=O)O [Example 54]	16
Cc1oc(-c2ccccc2)nc1COc1cccc2c1ccn2CCCC(=O)O [Example 55]	> 100
